Source: patent publication US20130018109A1, “Skin and hair treatments” (priority 2011, published 2013)

Tests used:
mice = settings: according to published information; cited from earlier work
migraine headaches = experiment: Use of linalool shampoo by individuals suffering from migraines; format: in vivo, human; settings: same individual, prescription drug taken before the shampoo use
Source text: One individual who had suffered from migraines for several years and who had taken the prescription drug Prozac® with only limited benefits, started using a commercial product, Ivory Shampoo®, with approximately 1% by volume of linalool added. […] Other commercially available shampoos containing little perfume with approximately 1% by volume of linalool added were substituted for the Ivory Shampoo with linalool and the benefit persisted. Another commercially available shampoo that has been used with about 1% by volume of linalool added is Botanical Nutrients® soyflower shampoo containing: water; extracts of geranium maculatum (geranium), Echinacea angustifolia (coneflower), and lavendula angustifolia (lavender); ammonium lauryl sulfate; decyl glucoside; cocoamide MEA; PPG-5-ceteth-10-phosphatel cocoamidopropyl betaine; fragrance; polyquatemium-7; glycerin; panthenol; hydrolyzed soy protein; isostearamidopropyl morpholine lactate; vitamin E; disodium wheat germamido PEG-2 sulfosuccinate; guar hydroxypropyl ammonium chloride; PEG-150 distearate; PEG-30 castor oil; PEG-12 dimethicone; benzophenone-4; disodium EDTA; diazolidinyl urea; methylparaben; and citric acid. Another shampoo that has been used is Bath & Body Works® Bio balancing shampoo.
When this individual stopped using the commercial shampoos containing about 1% linalool, a migraine headache was experienced. […]

Row | SMILES | tumors in mice (mice) | prevention of migraine headaches by prescription drug (migraine headaches)
1 | C=C(C)[C@H]1CC=C(C)CC1 [Limonene] | shown to cause tumors in mice | 
2 | CNCCC(Oc1ccc(C(F)(F)F)cc1)c1ccccc1 (centres unmarked) [Prozac] |  | had not prevented migraine headaches
